Experimental data as given in patent US7332476B2, “Pyridyl substituted ketolide antibiotics” (Novartis AG, priority 2003, dated 2008).

What was measured:
[1] = tested on: Streptococcus pyogenes Stpy_8668; assay: MIC, broth microdilution (NCCLS); assay type: cell-based; design: MIC, strain ID G: unit not given beside the values; details: for MIC: Table 10, Strain ID G (Table 8): Streptococcus pyogenes Stpy_8668
In short: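 NCCLS broth microdilution with 2-fold serial drug dilutions (methanol stocks diluted in water); inoculum 3×10^5–7×10^5 CFU/ml in CAMHB, with 2-5% lysed horse blood for S. pneumoniae. Incubation 18-24 h at 35° C., ambient air, except S. pneumoniae (5-10% CO2). MIC is lowest concentration preventing visible growth.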

[2] = In vivo pharmacokinetic study in rats, whole lung (IV and PO); details: male, Sprague-Dawley, 5 mg/kg, rat; for half-life: IV, whole lung, read-out: t1/2, IV Lung (converted); for Kp: lung/plasma, iv, read-out: L/P ratio, IV
Method: (§1) Animal Models. A total of 54 male Sprague-Dawley rats, weighing 200 grams in average, were evaluated for pharmacokinetic studies of representative pyridyl substituted ketolides. Rats were under overnight food restriction and received water ad libitum. Rats were acclimated for approximately 5 days before antibiotic administration.
(§2) Antibiotic Administration. Rats were given bolus administration through (IV) and oral (PO) routes. Representative pyridyl substituted ketolides and telithromycin, for comparison, were diluted in 0.85% saline to a concentration of 15.0 mg/ml, and the resulting pH was adjusted using 1N acetic acid until the compound was in solution. Approximately 200 microliters of the compound solution was administered to the rats. The target dose for IV and PO administration was 5 mg/kg and 15 mg/kg, respectively.
(§3) Sample Collection. Plasma and whole lung samples were collected from the rats. Plasma samples were obtained from blood samples by centrifugation at 3000 RPM for 10 min. Heparin was added in the plasma as an anticoagulant. Whole lung samples were homogenized in deionized water. Samples were stored at −80° C. A total of 9 time points were collected in triplicate at 0.083, 0.25, 0.5, 1, 2, 4, 6, 8, and 24 hrs. Ketolide concentrations in plasma and lung were determined by well-established non-GLP LC-MS-MS methods. PK parameters were estimated from the raw bioanalytical data using WinNolin software (Version 4.0, Pharsight Corporation, CA). […] All representative compounds were compared to telithromycin.

[3] = In vivo pharmacokinetic study in rats, plasma (IV and PO); design: species or system Sprague-Dawley rats; details: rat; for half-life / AUC / clearance / Vd: male, Sprague-Dawley; for half-life: 5 mg/kg, read-out: t1/2, IV Plasma (converted); for clearance / Vd: intravenous; for Vd: read-out: Vss; for F, PO: PO = 15 mg/kg
Method: as §1, §2, §3

[4] = tested on: S. pneumoniae Stpn_Erm 6849; assay: MIC, broth microdilution (NCCLS); assay type: cell-based, Streptococcus pneumoniae; details: strain ID P; broth microdilution; in µg/mL (unit assumed)
In short: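 S. pneumoniae MIC by NCCLS broth microdilution in cation-adjusted Mueller-Hinton broth with 2-5% lysed horse blood, inoculum 3×10^5–7×10^5 CFU/ml, 2-fold drug dilutions. Incubated 18-24 hours at 35° C. in 5-10% CO2; MIC is lowest concentration preventing visible growth.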

[5] = plasma, IV, dose IV = 5 mg/kg (Compound XIV: IV = 15)

For C=C[C@]12OC(=O)N(CCCCn3cnc(-c4ccc(C)nc4)c3)[C@@H]1[C@@H](C)C(=O)[C@H](C)C[C@](C)(OC)[C@H](OC1O[C@H](C)C[C@H](N(C)C)[C@H]1O)[C@@H](C)C(=O)[C@@H](C)C(=O)O[C@@H]2CC (some centres unmarked) [XVI], the MIC [1] was “=0.05”, the half-life [2] was 3.4 h and the Kp [2] was 80. For the same compound, the half-life ([3]; IV, plasma) was 1.6 h, the AUC [3, 5] was 2.1 µg·h/mL and the clearance ([3]; plasma) was 6.9 L/h/kg. The Vd ([3]; plasma) was 14 L/kg and the “F, PO” value [3] was 35%.
For CC[C@H]1OC(=O)[C@@](C)(F)C(=O)[C@H](C)[C@@H](OC2O[C@H](C)C[C@H](N(C)C)[C@H]2O)[C@@](C)(OC)C[C@@H](C)C(=O)[C@H](C)[C@H]2N(CCCCn3cnc(-c4ccc(C)nc4)c3)C(=O)O[C@]12CC (some centres unmarked) [XIV], the MIC [1] was “=0.05”, the half-life [2] was 3.6 h and the Kp [2] was 83. It also gave a half-life ([3]; IV, plasma) of 2.3 h, an AUC [3, 5] of 3.3 µg·h/mL and a clearance ([3]; plasma) of 4.2 L/h/kg. The Vd ([3]; plasma) was 13 L/kg and the “F, PO” value [3] was 43%.
For C=C[C@]12OC(=O)N(CCCCn3cnc(-c4ccc(OC)nc4)c3)[C@@H]1[C@@H](C)C(=O)[C@H](C)C[C@](C)(OC)[C@H](OC1O[C@H](C)C[C@H](N(C)C)[C@H]1O)[C@@H](C)C(=O)[C@@H](C)C(=O)O[C@@H]2CC (some centres unmarked) [XVIII], the MIC [1] was “=0.05”, the half-life [2] was 3.1 h and the Kp [2] was 110. For the same compound, the half-life ([3]; IV, plasma) was 1.7 h, the AUC [3, 5] was 2.6 µg·h/mL and the clearance ([3]; plasma) was 5.46 L/h/kg. The Vd ([3]; plasma) was 11 L/kg and the “F, PO” value [3] was 51%.
For CC[C@H]1OC(=O)[C@H](C)C(=O)[C@H](C)[C@@H](O[C@@H]2O[C@H](C)C[C@H](N(C)C)[C@H]2O)[C@](C)(OC)C[C@@H](C)C(=O)[C@H](C)[C@H]2N(CCCCn3cnc(-c4cccnc4)c3)C(=O)O[C@]12C [Telithromycin, telithromycin, reference compound], the MIC [1] was “=0.05”, the “MIC, strain ID G” value ([1]; strain ID G, broth microdilution) was “=0.05” and the “MIC, strain ID P” value [4] was 0.2-0.78. The half-life [2] was 1.3 h, the Kp [2] was 16 and the “AUC, IV” value ([3]; IV, dose IV = 5 mg/kg (Compound XIV: IV = 15)) was 2.5 µg·h/mL. The “t1/2, IV Plasma” value ([3]; IV, plasma) was 1.0 h and the “F, PO” value [3] was 11%.
